System: 233499-124-R-J3-PDC complex spheroid viability
Experiment: Anticancer human tumor 233499-124-R-J3-PDC patient-derived colon adenocarcinoma cell line growth inhibition [CLK]
Settings: for viability, T/C: stronger effect = lower value
Description: A high-throughput screen of multi-cell type tumor spheroids was designed to identify active combinations of […] and targeted small molecules. Complex spheroids include a stromal component modeled by human endothelial cells (HUVEC) and fibroblasts modeled by human mesenchymal stem cells (MSCs). The concentration ranges selected for each drug and investigational agent were based upon clinically achievable concentrations if the clinical Cmax of the agent was known.
Compounds. The drugs and investigational agents: cirtuvivint (SM08502; NSC835563), CC-671 (NSC850746), vemurafenib (NSC761431), tapotoclax (NSC804041), sotorasib (NSC818433), adagrasib (NSC831453), MRTX-1133 (NSC836407), BAY2416964 (NSC825713), copanlisib (NSC816437), inavolisib (NSC800729), abemaciclib (NSC768073), osimertinib (NSC779217), entinostat (NSC756642), eltanexor (KPT-8602, NSC794443), venetoclax (NSC766270), ceralasertib (NSC777638), bortezomib (NSC756655), olaparib (NSC753686), talazoparib (NSC767125), alisertib (NSC759677), peposertib (NSC802822), gemcitabine (NSC613327), 5-fluorouracil (NSC19893), SN-38 (NSC673596), oxaliplatin (NSC266046), paclitaxel (NSC125973), and doxorubicin (NSC123127), were obtained from the National Cancer Institute (NCI) Developmental Therapeutics Program Chemical Repository. The FDA-approved anticancer drug set is available from the Developmental Therapeutics Program at https://dtp.cancer.gov/organization/dscb/obtaining/available plates.htm. […] The stock solutions were prepared in dimethyl sulfoxide (DMSO, Sigma-Aldrich, St. Louis, MO, cat. D2650), except for the platinum complexes which were prepared in saline (Quality Biological, Gaithersburg, MD, cat. 114-055-101), at 800-fold the tested concentration and stored at -70 degrees C prior to their use. All drugs and investigational agents were tested over a range starting from a high concentration at or near the clinical Cmax and decreasing in half-log increments. If the clinical Cmax for an agent had not been determined, the highest concentration tested was 10 microM.
Cell Culture. All cells were maintained in an incubator at 37 degrees C and 5% CO2 with 95% humidity. The PDC lines were cultured according to standard operating procedures established by the NCI PDMR. Briefly, all PDCs were thawed and cultured in Matrigel-coated flasks prepared with a working solution of 1X Ham's F-12 nutrient mix, without supplementation (Invitrogen, Waltham, MA, cat. 11765054), 100 U/mL penicillin-streptomycin (Invitrogen, cat. 15140122), and 2.5% Matrigel (Corning Inc., Corning, NY, cat. 354248) for the first three passages. The 947758-054-R-J2-PDC line was cultured in 6B/Colon 1A media, which includes advanced DMEM/F-12 (Thermo Fisher Scientific, cat. 12634028), 10 mM HEPES (Thermo Fisher Scientific, cat. 15630080), 1X GlutaMAX supplement (Thermo Fisher Scientific, cat. 35050061), 0.1 mg/mL primocin (InvivoGen, cat. ant-pm-2), 10% defined fetal bovine serum, heat inactivated (HyClone Laboratories Inc., cat. SH30070.03HI), 1.25 mM N-Acetyl-L-cysteine (Sigma-Aldrich, cat. A9165), 10 mM nicotinamide (Sigma-Aldrich, cat. N0636), 1X B-27 supplement (Thermo Fisher Scientific, cat. 17504044), 1X N-2 supplement (Thermo Fisher Scientific, cat. 17502048), and 10 microM Y-27632 dihydrochloride (Tocris Bioscience, cat. 1254). The 876862-298-R-J1-PDC was cultured in 6E media, which includes all 6B/Colon 1A media components plus 50% L-WRN conditioned media (ATCC, cat. CRL-3276), 50 ng/mL recombinant human EGF recombinant protein (hEGF; Thermo Fisher Scientific, cat. PHG0311), 10 ng/mL recombinant human fibroblast growth factor 10 (hGFG-10; PeproTech, cat. 100-26), 1 ng/mL recombinant human fibroblast growth factor 2 (hFGF-2; PeproTech, cat. 100-18B), and 1 µM prostaglandin E2 (PGE2; Tocris, cat. 2296). The 227483-062-R1-J1-PDC line was cultured in Panc media, containing all 6E components except hFGF-2, with the addition of 500 nM SB-431542 (Selleckchem, cat. S1067) and 10 nM gastrin (Tocris, cat. 3006). […]

[1] = curve of first compound, second compound 0.0316 µM
[2] = curve of first compound, second compound 0.1 µM
[3] = curve of first compound, second compound 0.316 µM
[4] = curve of first compound, second compound 1 µM
[5] = curve of first compound, second compound 3.16 µM
[6] = curve of first compound, second compound 10 µM
[7] = second compound 0.0316 µM, first compound 0.0316 µM
[8] = second compound 0.0316 µM, first compound 0.1 µM
[9] = second compound 0.0316 µM, first compound 0.316 µM
[10] = second compound 0.0316 µM, first compound 1 µM
[11] = second compound 0.0316 µM, first compound 3.16 µM
[12] = second compound 0.0316 µM, first compound 10 µM
[13] = second compound 0.1 µM, first compound 0.0316 µM
[14] = second compound 0.1 µM, first compound 0.1 µM
[15] = second compound 0.1 µM, first compound 0.316 µM
[16] = second compound 0.1 µM, first compound 1 µM
[17] = second compound 0.1 µM, first compound 3.16 µM
[18] = second compound 0.1 µM, first compound 10 µM
[19] = second compound 0.316 µM, first compound 0.0316 µM
[20] = second compound 0.316 µM, first compound 0.1 µM
[21] = second compound 0.316 µM, first compound 0.316 µM
[22] = second compound 0.316 µM, first compound 1 µM
[23] = second compound 0.316 µM, first compound 3.16 µM
[24] = second compound 0.316 µM, first compound 10 µM
[25] = second compound 1 µM, first compound 0.0316 µM
[26] = second compound 1 µM, first compound 0.1 µM
[27] = second compound 1 µM, first compound 0.316 µM
[28] = second compound 1 µM, first compound 1 µM
[29] = second compound 1 µM, first compound 3.16 µM
[30] = second compound 1 µM, first compound 10 µM
[31] = second compound 3.16 µM, first compound 0.0316 µM
[32] = second compound 3.16 µM, first compound 0.1 µM
[33] = second compound 3.16 µM, first compound 0.316 µM
[34] = second compound 3.16 µM, first compound 1 µM
[35] = second compound 3.16 µM, first compound 3.16 µM
[36] = second compound 3.16 µM, first compound 10 µM
[37] = second compound 10 µM, first compound 0.0316 µM
[38] = second compound 10 µM, first compound 0.1 µM
[39] = second compound 10 µM, first compound 0.316 µM
[40] = second compound 10 µM, first compound 1 µM
[41] = second compound 10 µM, first compound 3.16 µM
[42] = second compound 10 µM, first compound 10 µM
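Further: spheroids exposed to the drug combinations for seven days.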
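Wherever viability, T/C is given: percent viability relative to DMSO vehicle control wells taken as 100%.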

COc1c(OCCCN2CCOCC2)ccc2c3n(c(=NC(=O)c4cnc(N)nc4)nc12)CCN3
viability, T/C (compound 0.00316 µM): 83% | viability, T/C (compound 0.01 µM): 86% | viability, T/C (compound 0.0316 µM): 88.8% | viability, T/C (compound 0.1 µM): 49.3% | viability, T/C (compound 0.316 µM): 34.4% | viability, T/C (compound 1 µM): 3.62% | IC50 (curve of compound): 141 nM

Nc1ccccc1NC(=O)c1ccc(CNC(=O)OCc2cccnc2)cc1 + CN1CCN(c2cc(C(=O)Nc3cc4cc(-c5cnn(C)c5)ccc4cn3)ccn2)CC1
IC50 [1]: 1690 nM | IC50 [2]: 1110 nM | IC50 [3]: < 31.6 nM | IC50 [4]: < 31.6 nM | IC50 [5]: < 31.6 nM | IC50 [6]: < 31.6 nM | viability, T/C [7]: 96.3% | viability, T/C [8]: 89.9% | viability, T/C [9]: 93.6% | viability, T/C [10]: 80.5% | viability, T/C [11]: 13.5% | viability, T/C [12]: 0.6% | viability, T/C [13]: 89.3% | viability, T/C [14]: 100% | viability, T/C [15]: 80.2% | viability, T/C [16]: 56.6% | viability, T/C [17]: 2.92% | viability, T/C [18]: 0.44% | viability, T/C [19]: 17.7% | viability, T/C [20]: 47.3% | viability, T/C [21]: 2.45% | viability, T/C [22]: 0.63% | viability, T/C [23]: 0.47% | viability, T/C [24]: 0.63% | viability, T/C [25]: 0.46% | viability, T/C [26]: 0.44% | viability, T/C [27]: 0.62% | viability, T/C [28]: 0.56% | viability, T/C [29]: 0.57% | viability, T/C [30]: 1.23% | viability, T/C [31]: 0.65% | viability, T/C [32]: 0.68% | viability, T/C [33]: 0.7% | viability, T/C [34]: 0.66% | viability, T/C [35]: 0.69% | viability, T/C [36]: 0.59% | viability, T/C [37]: 0.18% | viability, T/C [38]: 0.24% | viability, T/C [39]: 0.28% | viability, T/C [40]: 0.28% | viability, T/C [41]: 0.26% | viability, T/C [42]: 0.35%

CC1(C)CCC(CN2CCN(c3ccc(C(=O)NS(=O)(=O)c4ccc(NCC5CCOCC5)c([N+](=O)[O-])c4)c(Oc4cnc5[nH]ccc5c4)c3)CC2)=C(c2ccc(Cl)cc2)C1 + CN1CCN(c2cc(C(=O)Nc3cc4cc(-c5cnn(C)c5)ccc4cn3)ccn2)CC1
IC50 [1]: 6390 nM | IC50 [2]: 6370 nM | IC50 [3]: 5740 nM | IC50 [4]: < 31.6 nM | IC50 [5]: < 31.6 nM | IC50 [6]: < 31.6 nM | viability, T/C [7]: 93.1% | viability, T/C [8]: 104% | viability, T/C [9]: 102% | viability, T/C [10]: 112% | viability, T/C [11]: 113% | viability, T/C [12]: 15.2% | viability, T/C [13]: 96.4% | viability, T/C [14]: 109% | viability, T/C [15]: 100% | viability, T/C [16]: 109% | viability, T/C [17]: 112% | viability, T/C [18]: 14.5% | viability, T/C [19]: 86.1% | viability, T/C [20]: 97% | viability, T/C [21]: 89% | viability, T/C [22]: 98.6% | viability, T/C [23]: 93.8% | viability, T/C [24]: 9.92% | viability, T/C [25]: 0.68% | viability, T/C [26]: 5.6% | viability, T/C [27]: 5.7% | viability, T/C [28]: 0.77% | viability, T/C [29]: 0.88% | viability, T/C [30]: 1.46% | viability, T/C [31]: 0.9% | viability, T/C [32]: 0.86% | viability, T/C [33]: 1.07% | viability, T/C [34]: 0.81% | viability, T/C [35]: 1.05% | viability, T/C [36]: 0.73% | viability, T/C [37]: 0.67% | viability, T/C [38]: 0.49% | viability, T/C [39]: 0.43% | viability, T/C [40]: 0.49% | viability, T/C [41]: 0.56% | viability, T/C [42]: 0.29%

O=c1[nH]cc(F)c(=O)[nH]1 + CN1CCN(c2cc(C(=O)Nc3cc4cc(-c5cnn(C)c5)ccc4cn3)ccn2)CC1
IC50 [1]: 850 nM | IC50 [2]: 952 nM | IC50 [3]: 844 nM | IC50 [4]: < 31.6 nM | IC50 [5]: < 31.6 nM | IC50 [6]: < 31.6 nM | viability, T/C [7]: 93% | viability, T/C [8]: 104% | viability, T/C [9]: 90.8% | viability, T/C [10]: 43.5% | viability, T/C [11]: 28.6% | viability, T/C [12]: 31.4% | viability, T/C [13]: 99.8% | viability, T/C [14]: 100% | viability, T/C [15]: 96.8% | viability, T/C [16]: 48% | viability, T/C [17]: 28.8% | viability, T/C [18]: 30.4% | viability, T/C [19]: 96.3% | viability, T/C [20]: 98.5% | viability, T/C [21]: 96.5% | viability, T/C [22]: 42% | viability, T/C [23]: 24.6% | viability, T/C [24]: 19.7% | viability, T/C [25]: 1.35% | viability, T/C [26]: 1.2% | viability, T/C [27]: 0.92% | viability, T/C [28]: 2.1% | viability, T/C [29]: 0.59% | viability, T/C [30]: 0.84% | viability, T/C [31]: 0.5% | viability, T/C [32]: 0.58% | viability, T/C [33]: 1.18% | viability, T/C [34]: 0.66% | viability, T/C [35]: 0.53% | viability, T/C [36]: 0.54% | viability, T/C [37]: 0.37% | viability, T/C [38]: 0.5% | viability, T/C [39]: 1.31% | viability, T/C [40]: 0.42% | viability, T/C [41]: 0.41% | viability, T/C [42]: 0.45%

From PubChem BioAssay AID2060613 (Molecular Pharmacology Branch, DTP, NCI, 2025)
